Data as given in US9096593B2, “Compounds and methods for kinase modulation, and indications therefor” (Plexxikon Inc., priority 2009, dated 2015).
Like-named read-outs stand apart in the source and are kept apart here.

Key:
Fms kinase = Fms kinase (Homo sapiens (Human), UniProt P07333); assay: Fms kinase biochemical activity assay (AlphaScreen, biotin-(E4Y)10 phosphorylation)
Summary of the method: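 Recombinant human Fms phosphorylating 30 nM biotin-(E4Y)10 with 100 μM ATP (1 ng/well enzyme) in Hepes pH 7.5 buffer with Mg2+/Mn2+, 5% DMSO, 20 min at 30 °C. Phosphotyrosine detected by AlphaScreen streptavidin donor/PY20 acceptor beads; IC50 from signal versus compound concentration.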

c-Kit kinase = c-Kit kinase (Homo sapiens (Human), UniProt P10721); assay: c-Kit kinase biochemical activity assay (AlphaScreen, biotin-(E4Y)10 phosphorylation)
CYP1A2 = CYP1A2 (Homo sapiens (Human), UniProt P05177); assay: CYP enzyme inhibition, fluorescent substrate; conditions: human, 15 min
CYP2C19 = CYP2C19 (Homo sapiens (Human), UniProt P33261); assay: CYP enzyme inhibition, fluorescent substrate; conditions: read-out: Cyp IC50 (μM) 2C19
Summary of the method: (§1)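 […]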

CYP2C9 = CYP2C9 (Homo sapiens (Human), UniProt P11712); assay: CYP enzyme inhibition, fluorescent substrate
Summary of the method: as §1

CYP2D6 = CYP2D6 (Homo sapiens (Human), UniProt P10635); assay: CYP enzyme inhibition, fluorescent substrate; conditions: read-out: Cyp IC50 (μM) 2D6
CYP3A4(BFC) = CYP3A4(BFC) (Homo sapiens (Human), UniProt P08684); assay: CYP enzyme inhibition, fluorescent substrate
Summary of the method: as §1

CYP3A4(BQ) = CYP3A4(BQ) (Homo sapiens (Human), UniProt P08684); assay: CYP enzyme inhibition, fluorescent substrate
Summary of the method: as §1

[1] = read-out: Biochemical activity (IC50 μM) Fms
[2] = read-out: Cyp IC50 (μM) 3A4(BQ), BQ substrate
[3] = read-out: Cyp IC50 (μM) 3A4(BFC), BFC substrate

Sequence of CYP3A4(BFC) (P08684 whole entry): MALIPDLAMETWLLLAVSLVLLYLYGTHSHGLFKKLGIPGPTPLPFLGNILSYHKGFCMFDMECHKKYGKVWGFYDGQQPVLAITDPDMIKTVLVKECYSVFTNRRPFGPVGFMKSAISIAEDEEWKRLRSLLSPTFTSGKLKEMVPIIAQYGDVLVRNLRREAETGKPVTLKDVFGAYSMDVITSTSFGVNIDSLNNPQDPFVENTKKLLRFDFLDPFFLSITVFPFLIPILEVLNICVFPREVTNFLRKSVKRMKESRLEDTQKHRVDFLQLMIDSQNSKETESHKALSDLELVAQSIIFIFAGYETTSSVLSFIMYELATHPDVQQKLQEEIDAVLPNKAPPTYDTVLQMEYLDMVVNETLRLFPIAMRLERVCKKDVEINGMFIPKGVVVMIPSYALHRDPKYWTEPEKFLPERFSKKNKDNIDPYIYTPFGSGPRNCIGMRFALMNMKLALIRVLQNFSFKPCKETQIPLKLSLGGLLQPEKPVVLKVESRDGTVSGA
Sequence of CYP3A4(BQ) (P08684 whole entry): as above
Sequence of CYP1A2 (P05177 whole entry): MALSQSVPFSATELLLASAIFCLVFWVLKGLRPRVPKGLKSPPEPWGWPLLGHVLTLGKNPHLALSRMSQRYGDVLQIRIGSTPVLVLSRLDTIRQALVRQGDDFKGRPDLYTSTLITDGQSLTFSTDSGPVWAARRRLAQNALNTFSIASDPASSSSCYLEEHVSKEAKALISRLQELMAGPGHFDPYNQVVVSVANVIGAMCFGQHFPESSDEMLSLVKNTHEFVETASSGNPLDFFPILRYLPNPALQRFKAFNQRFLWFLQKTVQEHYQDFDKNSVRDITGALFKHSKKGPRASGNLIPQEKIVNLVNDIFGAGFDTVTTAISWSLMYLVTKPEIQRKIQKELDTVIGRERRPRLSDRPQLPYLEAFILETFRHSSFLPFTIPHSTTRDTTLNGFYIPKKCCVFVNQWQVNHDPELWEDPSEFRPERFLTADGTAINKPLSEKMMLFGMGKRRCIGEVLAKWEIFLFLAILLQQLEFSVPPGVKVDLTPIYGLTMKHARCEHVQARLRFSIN
Sequence of CYP2C9 (P11712 whole entry): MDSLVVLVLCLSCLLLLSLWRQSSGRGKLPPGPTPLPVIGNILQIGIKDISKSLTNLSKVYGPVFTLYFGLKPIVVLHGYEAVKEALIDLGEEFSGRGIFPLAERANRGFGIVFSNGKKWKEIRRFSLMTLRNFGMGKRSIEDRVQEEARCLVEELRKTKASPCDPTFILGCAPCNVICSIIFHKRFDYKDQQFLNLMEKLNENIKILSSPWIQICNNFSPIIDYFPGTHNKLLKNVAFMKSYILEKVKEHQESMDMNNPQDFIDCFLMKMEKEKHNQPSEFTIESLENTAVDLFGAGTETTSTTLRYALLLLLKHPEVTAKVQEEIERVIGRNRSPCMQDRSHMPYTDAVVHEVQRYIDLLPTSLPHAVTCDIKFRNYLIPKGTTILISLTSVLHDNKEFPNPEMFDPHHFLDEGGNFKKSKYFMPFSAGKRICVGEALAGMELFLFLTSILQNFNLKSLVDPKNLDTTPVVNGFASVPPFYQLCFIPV
Sequence of CYP2C19 (P33261 whole entry): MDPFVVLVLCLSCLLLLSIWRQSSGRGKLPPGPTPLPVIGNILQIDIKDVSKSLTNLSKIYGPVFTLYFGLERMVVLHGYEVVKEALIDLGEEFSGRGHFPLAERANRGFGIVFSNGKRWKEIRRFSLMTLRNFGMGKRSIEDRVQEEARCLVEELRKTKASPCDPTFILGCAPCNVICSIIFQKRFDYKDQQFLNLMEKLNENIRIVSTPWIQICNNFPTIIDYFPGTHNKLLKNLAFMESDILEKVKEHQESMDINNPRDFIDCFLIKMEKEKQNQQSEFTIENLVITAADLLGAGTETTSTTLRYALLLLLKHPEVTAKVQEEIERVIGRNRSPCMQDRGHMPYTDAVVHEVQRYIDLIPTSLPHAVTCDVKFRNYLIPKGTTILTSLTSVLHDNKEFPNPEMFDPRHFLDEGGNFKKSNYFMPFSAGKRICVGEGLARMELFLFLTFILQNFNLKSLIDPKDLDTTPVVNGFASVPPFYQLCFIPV
Sequence of CYP2D6 (P10635 whole entry): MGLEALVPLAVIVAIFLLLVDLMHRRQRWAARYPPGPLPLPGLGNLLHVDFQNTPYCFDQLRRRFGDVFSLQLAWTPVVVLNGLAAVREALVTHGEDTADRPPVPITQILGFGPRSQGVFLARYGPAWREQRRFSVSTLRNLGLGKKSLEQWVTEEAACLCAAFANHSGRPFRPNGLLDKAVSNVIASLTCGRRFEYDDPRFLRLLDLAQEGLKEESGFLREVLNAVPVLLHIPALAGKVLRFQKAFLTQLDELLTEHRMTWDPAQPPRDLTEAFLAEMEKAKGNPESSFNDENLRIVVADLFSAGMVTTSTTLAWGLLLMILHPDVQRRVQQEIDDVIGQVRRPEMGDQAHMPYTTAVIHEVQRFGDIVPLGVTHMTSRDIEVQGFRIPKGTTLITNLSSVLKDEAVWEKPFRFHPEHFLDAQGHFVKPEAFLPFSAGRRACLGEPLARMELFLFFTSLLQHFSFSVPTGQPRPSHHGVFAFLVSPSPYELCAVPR
Sequence of Fms kinase (P07333 20-972): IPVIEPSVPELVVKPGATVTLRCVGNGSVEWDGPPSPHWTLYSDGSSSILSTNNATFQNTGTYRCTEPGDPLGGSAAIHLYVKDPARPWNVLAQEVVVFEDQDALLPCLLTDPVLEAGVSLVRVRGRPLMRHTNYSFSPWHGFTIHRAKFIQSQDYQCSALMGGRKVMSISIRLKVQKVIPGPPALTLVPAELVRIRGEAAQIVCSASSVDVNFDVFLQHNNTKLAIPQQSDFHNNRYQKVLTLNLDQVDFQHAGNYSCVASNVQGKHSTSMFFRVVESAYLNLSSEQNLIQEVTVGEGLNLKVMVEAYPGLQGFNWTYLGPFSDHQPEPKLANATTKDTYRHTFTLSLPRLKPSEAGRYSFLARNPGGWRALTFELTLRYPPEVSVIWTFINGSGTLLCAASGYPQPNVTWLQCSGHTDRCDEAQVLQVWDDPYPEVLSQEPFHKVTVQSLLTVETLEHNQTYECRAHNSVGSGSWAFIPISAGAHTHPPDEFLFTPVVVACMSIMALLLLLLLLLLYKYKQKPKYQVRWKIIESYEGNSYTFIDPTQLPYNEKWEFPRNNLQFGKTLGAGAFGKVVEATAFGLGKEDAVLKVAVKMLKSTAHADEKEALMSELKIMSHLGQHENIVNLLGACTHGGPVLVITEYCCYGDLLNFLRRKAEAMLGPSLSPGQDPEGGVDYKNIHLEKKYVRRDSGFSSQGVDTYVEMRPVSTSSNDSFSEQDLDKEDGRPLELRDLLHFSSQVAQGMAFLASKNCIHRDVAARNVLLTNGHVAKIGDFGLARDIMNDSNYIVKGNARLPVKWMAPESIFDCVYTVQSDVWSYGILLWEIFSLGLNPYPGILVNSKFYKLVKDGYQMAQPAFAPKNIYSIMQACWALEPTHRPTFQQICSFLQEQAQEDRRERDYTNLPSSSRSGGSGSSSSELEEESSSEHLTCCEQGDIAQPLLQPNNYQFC
Sequence of c-Kit kinase (P10721 26-976): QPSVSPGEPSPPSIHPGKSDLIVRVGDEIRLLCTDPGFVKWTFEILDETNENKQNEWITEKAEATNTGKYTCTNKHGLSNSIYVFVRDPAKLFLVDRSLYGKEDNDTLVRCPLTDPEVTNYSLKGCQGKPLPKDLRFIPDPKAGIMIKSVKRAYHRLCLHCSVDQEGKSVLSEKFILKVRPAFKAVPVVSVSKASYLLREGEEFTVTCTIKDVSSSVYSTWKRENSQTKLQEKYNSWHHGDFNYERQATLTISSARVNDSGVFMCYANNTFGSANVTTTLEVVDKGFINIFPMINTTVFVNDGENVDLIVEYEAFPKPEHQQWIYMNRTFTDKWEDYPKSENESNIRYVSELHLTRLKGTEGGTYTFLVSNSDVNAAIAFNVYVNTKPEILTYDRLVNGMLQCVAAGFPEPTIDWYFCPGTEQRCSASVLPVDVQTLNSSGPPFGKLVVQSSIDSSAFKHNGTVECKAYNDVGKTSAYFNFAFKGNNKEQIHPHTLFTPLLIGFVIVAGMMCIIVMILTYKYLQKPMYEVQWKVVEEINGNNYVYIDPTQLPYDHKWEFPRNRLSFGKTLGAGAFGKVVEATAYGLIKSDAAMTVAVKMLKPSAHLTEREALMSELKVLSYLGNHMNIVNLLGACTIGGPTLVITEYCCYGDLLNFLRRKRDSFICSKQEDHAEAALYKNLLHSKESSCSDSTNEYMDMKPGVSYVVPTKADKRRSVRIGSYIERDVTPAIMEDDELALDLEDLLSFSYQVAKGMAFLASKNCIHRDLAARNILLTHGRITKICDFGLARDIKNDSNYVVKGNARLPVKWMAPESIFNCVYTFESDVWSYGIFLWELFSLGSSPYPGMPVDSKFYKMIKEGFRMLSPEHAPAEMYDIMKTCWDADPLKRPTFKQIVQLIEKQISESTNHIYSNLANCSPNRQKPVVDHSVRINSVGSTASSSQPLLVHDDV

SMILES | Biochemical activity selectivity (Kit IC50/Fms IC50) (Fms kinase) | IC50 (Fms kinase; [1]) [µM] | IC50 (c-Kit kinase) [µM] | IC50 (CYP1A2) [µM] | IC50 (CYP2C19) [µM] | IC50 (CYP2C9; read-out: Cyp IC50 (μM) 2C9) [µM] | IC50 (CYP2D6) [µM] | IC50 (CYP3A4(BFC)) [µM] | IC50 (CYP3A4(BQ)) [µM] | IC50 (CYP2C9) [µM] | IC50 (CYP3A4(BQ); [2]) [µM] | IC50 (CYP3A4(BFC); [3]) [µM] | IC50 (Fms kinase; 100 μM ATP, read-out: Biochemical (IC50 μM) Fms) [µM]
Cc1cnc2[nH]cc(Cc3ccc(NCc4cccnc4F)nc3F)c2c1 [Compound P-2103, [6-Fluoro-5-(5-methyl-1H-pyrrolo[2,3-b]pyridin-3-ylmethyl)-pyridin-2-yl]-(2-fluoro-pyridin-3-ylmethyl)-amine] | >20 | < 0.1 | > 0.1 | > 10 | < 5 | < 5 | > 10 | 5 to 10 | 5 to 10 | – | – | – | –
Cc1cnc2[nH]cc(Cc3ccc(NCc4ccnc(F)c4)nc3F)c2c1 [Compound P-2118, [6-Fluoro-5-(5-methyl-1H-pyrrolo[2,3-b]pyridin-3-ylmethyl)-pyridin-2-yl]-(2-fluoro-pyridin-4-ylmethyl)-amine] | >20 | < 0.1 | > 0.1 | > 10 | < 5 | – | > 10 | 5 to 10 | – | 5 to 10 | > 10 | – | –
COc1ncccc1CNc1ncc(Cc2c[nH]c3ncc(C)cc23)cn1 [Compound P-2139, (2-Methoxy-pyridin-3-ylmethyl)-[5-(5-methyl-1H-pyrrolo[2,3-b]pyridin-3-ylmethyl)-pyrimidin-2-yl]-amine] | >20 | < 0.1 | > 0.1 | > 10 | > 10 | – | > 10 | 5 to 10 | – | 5 to 10 | > 10 | – | –
Cc1cnc2[nH]cc(Cc3cnc(NCc4ccc(C(F)(F)F)nc4)c(F)c3)c2c1 [Compound P-2146, [3-Fluoro-5-(5-methyl-1H-pyrrolo[2,3-b]pyridin-3-ylmethyl)-pyridin-2-yl]-(6-trifluoromethyl-pyridin-3-ylmethyl)-amine] | <20 | < 0.1 | < 0.1 | > 10 | < 5 | – | > 10 | – | – | 5 to 10 | > 10 | > 10 | –
COc1cnc2[nH]cc(Cc3cnc(NCc4ccc(C(F)(F)F)nc4)c(F)c3)c2c1 [Compound P-2147, [3-Fluoro-5-(5-methoxy-1H-pyrrolo[2,3-b]pyridin-3-ylmethyl)-pyridin-2-yl]-(6-trifluoromethyl-pyridin-3-ylmethyl)-amine] | <20 | < 0.1 | < 0.1 | > 10 | < 5 | > 10 | > 10 | 5 to 10 | 5 to 10 | – | – | – | –
COc1ncc(CNc2ccc(Cc3c[nH]c4ncc(Cl)cc34)c(F)n2)cc1F [Compound P-2165, [5-(5-Chloro-1H-pyrrolo[2,3-b]pyridin-3-ylmethyl)-6-fluoro-pyridin-2-yl]-(5-fluoro-6-methoxy-pyridin-3-ylmethyl)-amine] | >20 | < 0.1 | > 0.1 | > 10 | > 10 | > 10 | > 10 | – | – | – | > 10 | > 10 | < 0.1
